Measurements: patent US11440907B1 (Merck Patent GmbH, priority 2018, dated 2022)

Key:
Type in all cases: cell-based
[1] = system: XBP1(u)-luciferase splicing reporter in HepG2 hepatoma cells; experiment: HepG2 XBP1 reporter assay (XBP1(u)-Luc); details: Homo sapiens; for IC50: 6 h, six hours after addition of compound; for EC50: 6 hours after compound addition, Table 3, read-out: XBP1-luc HepG2 1 EC50
[2] = system: NCI-H929 (Multiple myeloma cells); experiment: Cell viability (ATPLite) in NCI-H929; details: Homo sapiens, 96 hours
Experimental: Cells were removed from liquid nitrogen storage, thawed and expanded in appropriate growth media. Once expanded, cells were seeded in 384-well tissue culture treated plates at 500 cells per well. After 24 hours, cells were treated for either 0 hours or treated for 96 hours with a testing compound (at the concentrations of 100 nM and 2 uM). At the end of either 0 hours or 96 hours, cell status was analyzed using ATPLite (Perkin Elmer) to assess the biological response of cells to the testing compound.

[3] = system: β-catenin-TCF-mediated reporter transcription activity in Colo 205 cells; experiment: Colo 205 reporter assay (TCF/LEF promoter-driven firefly luciferase); details: Homo sapiens; Colo 205 TCF/LEF luciferase reporter, 5 hours after compound addition, 384 well; read-out: Colo205 IC50

IC50 [1] [nM]	IC50 [2] [nM]	EC50 [1] [nM]	IC50 [3] [nM]	Structure (SMILES)
–	–	< 600	< 300	Cc1cc(N2CCCOC[C@@H]2c2ccc(NCC3(C)COC3)cc2Cl)nc(N)n1 [I-240, 4-[(3S)-3-[2-chloro-4-[(3-methyloxetan-3-yl)methylamino]phenyl]-1,4-oxazepan-4-yl]-6-methyl-pyrimidin-2-amine]
–	–	< 600	< 300	Cc1cc(N2CCCOC[C@@H]2c2ccc(N3CCC(C)(O)CC3)cc2Cl)nc(N)n1 [I-242, (5)-1-(4-(4-(2-amino-6-methylpyrimidin-4-yl)-1,4-oxazepan-3-yl)-3-chlorophenyl)-4-methylpiperidin-4-ol]
–	–	< 600	< 300	Cc1cc(N2CCCCCC2c2ccccc2Cl)nc(N)n1 (stereo not drawn) [I-243]
–	–	< 600	300 to 1000	Cc1cc(N2CCCOC[C@@H]2c2cc(Br)ccc2Cl)nc(N)n1 [I-245, 4-[(3S)-3-(5-bromo-2-chloro-phenyl)-1,4-oxazepan-4-yl]-6-methyl-pyrimidin-2-amine]
–	–	< 600	< 300	Cc1cc(N2CCCOC[C@@H]2c2ccc(NC3CN(C)C3)cc2Cl)nc(N)n1 [I-246, 4-[(3S)-3-[2-chloro-4-[(1-methylazetidin-3-yl)amino]phenyl]-1,4-oxazepan-4-yl]-6-methyl-pyrimidin-2-amine]
–	–	< 600	< 300	Cc1cc(N2CCCOC[C@@H]2c2ccc(NCC(C)(C)O)cc2Cl)nc(N)n1 [I-247, 1-[4-[(3S)-4-(2-amino-6-methyl-pyrimidin-4-yl)-1,4-oxazepan-3-yl]-3-chloro-anilino]-2-methyl-propan-2-ol]
–	–	< 600	< 300	Cc1cc(N2CCCOC[C@@H]2c2ccc(NC3CC3)cc2Cl)nc(N)n1 [I-248, 4-[(3S)-3-[2-chloro-4-(cyclopropylamino)phenyl]-1,4-oxazepan-4-yl]-6-methyl-pyrimidin-2-amine]
–	–	< 600	< 300	Cc1cc(N2CCCOC[C@@H]2c2ccc(NC3CN(C(=O)OC(C)(C)C)C3)cc2Cl)nc(N)n1 [I-256, Tert-butyl 3-[4-[(3S)-4-(2-amino-6-methyl-pyrimidin-4-yl)-1,4-oxazepan-3-yl]-3-chloro-anilino]azetidine-1-carboxylate]
–	–	< 600	300 to 1000	Cc1cc(N2CCCOC[C@@H]2c2ccc(NC3CNC3)cc2Cl)nc(N)n1 [I-257, 4-[(3S)-3-[4-(azetidin-3-ylamino)-2-chloro-phenyl]-1,4-oxazepan-4-yl]-6-methyl-pyrimidin-2-amine]
–	–	< 600	< 300	Cc1cc(N2CCCOC[C@@H]2c2cc(NC3COC3)ccc2Cl)nc(N)n1 [I-258, 4-[(3S)-3-[2-chloro-5-(oxetan-3-ylamino)phenyl]-1,4-oxazepan-4-yl]-6-methyl-pyrimidin-2-amine]
–	–	< 600	< 300	Cc1cc(N2CCCOC[C@@H]2c2ccc(N3CC4(COC4)C3)cc2Cl)nc(N)n1 [I-259, 4-[(3S)-3-[2-chloro-4-(2-oxa-6-azaspiro[3.3]heptan-6-yl)phenyl]-1,4-oxazepan-4-yl]-6-methyl-pyrimidin-2-amine]
–	–	< 600	< 300	Cc1cc(N2CCCOC[C@@H]2c2ccc(N3CC4(CCO4)C3)cc2Cl)nc(N)n1 [I-260, 4-[(3S)-3-[2-chloro-4-(1-oxa-6-azaspiro[3.3]heptan-6-yl)phenyl]-1,4-oxazepan-4-yl]-6-methyl-pyrimidin-2-amine]
–	–	< 600	< 300	Cc1cc(N2CCCOC[C@@H]2c2ccc(N3CC(C)(O)C3)cc2Cl)nc(N)n1 [I-261, (S)-1-(4-(4-(2-amino-6-methylpyrimidin-4-yl)-1,4-oxazepan-3-yl)-3-chlorophenyl)-3-methylazetidin-3-ol]
–	–	< 600	< 300	CC(=O)N1CC(Nc2ccc([C@H]3COCCCN3c3cc(C)nc(N)n3)c(Cl)c2)C1 [I-262, (S)-1-(3-((4-(4-(2-amino-6-methylpyrimidin-4-yl)-1,4-oxazepan-3-yl)-3-chlorophenyl)amino)azetidin-1-yl)ethan-1-one]
–	–	< 600	< 300	Cc1cc(N2CCCOC[C@@H]2c2ccc(NCC3(O)CCC3)cc2Cl)nc(N)n1 [I-263, 1-[[4-[(3S)-4-(2-amino-6-methyl-pyrimidin-4-yl)-1,4-oxazepan-3-yl]-3-chloro-anilino]methyl]-cyclobutanol]
–	–	< 600	< 300	Cc1cc(N2CCCOC[C@@H]2c2ccc(NC3(C)COC3)cc2Cl)nc(N)n1 [I-266, 4-[(3S)-3-[2-chloro-4-[(3-methyloxetan-3-yl)amino]phenyl]-1,4-oxazepan-4-yl]-6-methyl-pyrimidin-2-amine]
–	–	< 600	300 to 1000	Cc1cc(N2CCCOC[C@@H]2c2ccc(N3CCN(C)CC3)cc2Cl)nc(N)n1 [I-275, (S)-4-[3-[2-chloro-4-(4-methylpiperazin-1-yl)phenyl]-1,4-oxazepan-4-yl]-6-methyl-pyrimidin-2-amine]
–	–	2000 to 5000	300 to 1000	COc1ccc(F)cc1[C@@H]1CCCCCN1c1cc(C)nc(N)n1 [I-285]
–	–	≥ 5000	300 to 1000	COc1c(F)cccc1C1CCCCCN1c1cc(C)nc(N)n1 (stereo not drawn) [I-287]
–	–	< 600	< 300	Cc1cc(N2CCCOCC2c2ccc(NC3COC3)cc2Cl)nc(N)n1 (stereo not drawn) [I-302]
–	–	< 600	< 300	COCC(OC)c1ccc(C2COCCCN2c2cc(C)nc(N)n2)c(Cl)c1 (stereo not drawn) [I-307]
–	–	< 600	< 300	Cc1cc(N2CCCOCC2c2ccc(NC(=O)C(C)(C)O)cc2Cl)nc(N)n1 (stereo not drawn) [I-308]

Further lines, the molecule ahead of its results:

Structure (SMILES)	IC50 [1] [nM]	IC50 [2] [nM]	EC50 [1] [nM]	IC50 [3] [nM]
Cc1cc(N2CCCOC[C@@H]2c2ccc(OCS(C)(=O)=O)cc2Cl)nc(N)n1 [D-1]	600 to 2000	≥ 25000	–	–
Cc1cc(N2CCCOC[C@H]2c2ccc(OCS(C)(=O)=O)cc2Cl)nc(N)n1 [D-2]	< 600	< 1000	–	–
Cc1cc(N2CCCOC[C@@H]2c2ccc(S(=O)(=O)C3CCC3)cc2Cl)nc(N)n1 [D-3]	600 to 2000	≥ 25000	–	–
COc1cc(F)c(F)cc1[C@H]1COCCCN1c1cc(C)nc(N)n1 [D-4]	< 600	≥ 25000	–	–
COc1cc(F)c(F)cc1[C@@H]1COCCCN1c1cc(C)nc(N)n1 [D-5]	600 to 2000	1000 to 10000	–	–
Cc1cc(N2CCCOC[C@@H]2c2ccc(NC(=O)CCO)cc2Cl)nc(N)n1 [D-6]	600 to 2000	1000 to 10000	–	–
Cc1cc(N2CCCOC[C@H]2c2ccc(NC(=O)CCO)cc2Cl)nc(N)n1 [D-7]	600 to 2000	< 1000	–	–
Cc1cc(N2CCCOC[C@@H]2c2ccc(NC(=O)C(F)F)cc2Cl)nc(N)n1 [D-8]	600 to 2000	≥ 25000	–	–
Cc1cc(N2CCCOC[C@@H]2c2cc3c(cc2Cl)NCCC3)nc(N)n1 [D-9]	< 600	< 1000	–	–
Cc1cc(N2CCCOC[C@@H]2c2cc(N)c(C(F)(F)F)cc2Cl)nc(N)n1 [D-10]	< 600	< 1000	–	–
Cc1cc(N2CCCOCC2c2cc(OC(F)F)c(Cl)cc2Cl)nc(N)n1 [D-11]	2000 to 5000	10000 to 25000	–	–
CCC(=O)Nc1cc(Cl)c(C2COCCCN2c2cc(C)nc(N)n2)cc1C [D-12]	600 to 2000	1000 to 10000	–	–
Cc1cc(N2CCCOCC2c2cc(C)c(N3CCC(C)(O)CC3)cc2Cl)nc(N)n1 [D-13]	600 to 2000	≥ 25000	–	–
Cc1cc(N2CCCOC[C@@H]2c2cc3c(cc2Cl)N(C)CC3)nc(N)n1 [D-14]	< 600	< 1000	–	–
COc1cc(C2COCCCN2c2cc(C)nc(N)n2)c(Cl)cc1N1CCCC1 [D-17]	600 to 2000	1000 to 10000	–	–
COc1cc(C2COCCCN2c2cc(C)nc(N)n2)c(Cl)cc1OCCCC#N [D-18]	600 to 2000	1000 to 10000	–	–

Structure (SMILES)	IC50 [1] [nM]	IC50 [2] [nM]	EC50 [1] [nM]	IC50 [3] [nM]
COc1cc(C2COCCCN2c2cc(C)nc(N)n2)c(Cl)cc1N1CCOCC1 [D-19]	600 to 2000	1000 to 10000	–	–
Cc1cc(N2CCCOC[C@@H]2c2cc(O)c(C)cc2Cl)nc(N)n1 [D-20]	< 600	< 1000	–	–
CCOc1cc(C2COCCCN2c2cc(C)nc(N)n2)c(Cl)cc1O [D-21]	< 600	1000 to 10000	–	–
Cc1cc(N2CCCOC[C@@H]2c2ccc(CS(C)(=O)=O)cc2OC(F)F)nc(N)n1 [D-22]	< 600	< 1000	–	–
Cc1cc(N2CCCOCC2c2cc(O)c(C(=O)O)cc2Cl)nc(N)n1 [D-23]	< 600	≥ 25000	–	–
COc1cc(C2COCCCN2c2cc(C)nc(N)n2)c(Cl)cc1OCC(=O)N1CCCCC1 [D-24]	< 600	≥ 25000	–	–
CNc1cc(Cl)c([C@@H]2COCCCN2c2cc(C)nc(N)n2)cc1C [D-25]	< 600	≥ 25000	–	–
CNc1cc(Cl)c([C@H]2COCCCN2c2cc(C)nc(N)n2)cc1C [D-26]	< 600	< 1000	–	–
Cc1cc(N2CCCOC[C@H]2c2cc3c(cc2Cl)CCN3C)nc(N)n1 [D-27]	< 600	10000 to 25000	–	–
Cc1cc(N2CCCOC[C@@H]2c2cc3c(cc2Cl)CCN3C)nc(N)n1 [D-28]	< 600	< 1000	–	–
Cc1cc(N2CCCOC[C@H]2c2ccc(N)cc2Cl)nc(N)n1 [D-29]	< 600	≥ 25000	–	–
Cc1cc(N2CCCOC[C@@H]2c2ccc(N)cc2Cl)nc(N)n1 [D-30]	< 600	< 1000	–	–
Cc1cc(N2CCCOC[C@@H]2c2cc3c(cc2Cl)OCC(C)(C)CO3)nc(N)n1 [D-31]	< 600	< 1000	–	–
Cc1cc(N2CCCOCC2c2ccc(CS(C)(=O)=O)nc2F)nc(N)n1 [D-33]	2000 to 5000	≥ 25000	–	–
CCOc1cc([C@H]2COCCCN2c2cc(C)nc(N)n2)c(Cl)cc1OC [D-34]	< 600	< 1000	–	–
CCOC(=O)Cc1cc(C2COCCCN2c2cc(C)nc(C)n2)c(Cl)cc1C#N [D-35]	2000 to 5000	10000 to 25000	–	–
